The values below come from PubChem BioAssay AID1996.

Converted amounts (≈) assume the structure as drawn.

The conditions of this data set: buffer; pH 7.4; 200.0 µM.
In the case of `CC(C)c1ccc(N(C)C(=O)Cc2c(C(=O)O)n(C)c3ccccc23)cc1`, the kinetic solubility was greater than 54.7 µg/mL. The result for `Nc1ncc(CCN2CCOCC2)c(-c2ccc(F)cc2)n1` reads greater than 45.4 µg/mL; that for `COc1ccc(C(=O)O/N=C(\N)c2cccc(C)c2)cc1OC`, 14.7 µg/mL (≈ 46.8 µM); that for `COC(=O)c1cccc(NC(=S)NC(C)C)c1`, greater than 37.8 µg/mL. The result for `N#Cc1ccc(OCC(=O)NCCN2CCOCC2)cc1` reads greater than 43.4 µg/mL. For `N#Cc1ccc(C(=O)Nc2cccc3ccccc23)c(F)c1` the value was 0.9 µg/mL (≈ 3.1 µM); for `Cc1csc(NC(=O)CCCc2cccs2)n1`, 28.2 µg/mL (≈ 106 µM); for `COc1cccc2cc(C(C)OC(=O)Nc3ccc(C)cc3)oc12` (stereo not given), less than 0.7 µg/mL.

As to `Cc1ccccc1CNC(=O)Nc1ccc(Cl)cc1`, the kinetic solubility stood at 0.3 µg/mL (≈ 1.09 µM).

In the case of `COc1ccccc1CNC(=O)COC(=O)c1ccncc1`, the kinetic solubility was greater than 45 µg/mL.

On to `CN1C(=O)c2ccc(NC(=O)c3c(C(=O)O)cccc3[N+](=O)[O-])cc2C1=O`, for which the solubility (kinetic) is greater than 55.4 µg/mL. For `Cc1cccc(C(=O)NC2CC3CCCC(C2)N3Cc2ccccc2)c1` (stereo not given) the value was 11.1 µg/mL (≈ 31.9 µM); for `CNc1ccc(S(=O)(=O)NC)cc1[N+](=O)[O-]`, greater than 36.8 µg/mL; for `O=C(c1ccc(Br)cc1)N1CCN(c2ncccn2)CC1`, 44.6 µg/mL (≈ 128 µM). The result for `CCOC(=O)c1sc(NC(=O)c2c(CC)noc2C)nc1C` reads greater than 48.5 µg/mL. For `O=C(NOCc1ccccc1)c1ccc([N+](=O)[O-])cc1` the value was greater than 40.8 µg/mL; for `Cc1cc[n+](C(C)C(=O)c2ccc(Cl)cc2)cc1.[Br-]` (stereo not given), greater than 51.1 µg/mL; for `N#CCSc1ncnc2ccccc12`, 28.1 µg/mL (≈ 140 µM).

For the compound `O=C(COC(=O)c1cccnc1Cl)c1ccc(OC(F)F)cc1`, the solubility (kinetic) is 51.2 µg/mL (≈ 150 µM). `O=S(=O)(c1ccccc1)c1ccc(N2CCCCCC2)cc1` showed a solubility (kinetic) of less than 0.7 µg/mL. The compound `Cc1cccc(Nc2c([N+](=O)[O-])ccc3nonc23)c1C` displayed a solubility (kinetic) of less than 0.1 µg/mL. The result for `CCC(=O)Nc1cccc(C(=O)N(Cc2ccccc2)Cc2ccccc2)c1` reads 22.2 µg/mL (≈ 59.6 µM); that for `CCCc1cc(=O)[nH]c(SC/C=C/c2ccccc2)n1`, 1.9 µg/mL (≈ 6.63 µM); that for `COc1ccccc1Nc1ccc([N+](=O)[O-])cn1`, 8.1 µg/mL (≈ 33 µM).

In the case of `CCN(CC)CC(=O)Nc1c(C#N)cnn1-c1ccccc1`, the kinetic solubility is greater than 44.6 µg/mL.

`C[N+](C)(C)C[C@H](O)CC(=O)O.[Cl-]`: the solubility (kinetic) was greater than 29.6 µg/mL. The result for `COc1ccc(-c2onc(C)c2-c2cscn2)c(O)c1` reads greater than 43.2 µg/mL. In turn, `O=C(O)COc1ccc(Br)cc1/C=N\Nc1ccccn1` displayed a solubility (kinetic) greater than 52.5 µg/mL. For `Cc1ccc(C)c2nc(Cl)c(C#N)cc12` the value was less than 0.2 µg/mL.

Consider `O=C(CCSCc1ccc(Cl)cc1)NCc1cccnc1`, for which the kinetic solubility was 48 µg/mL (≈ 150 µM). `Cc1cccc(NC(=S)Nc2ccccn2)c1` displayed a solubility (kinetic) of 1.6 µg/mL (≈ 6.58 µM).

The compound `CC(=O)N[C@@H](Cc1c[nH]c2ccccc12)C(=O)NCc1ccccc1` registered a kinetic solubility greater than 50.3 µg/mL. For `CCOC(=O)c1c(/N=C/C2C(=O)NC(=O)NC2=O)sc2c1CCC2` the value was 5.4 µg/mL (≈ 15.5 µM); for `NC(=O)c1ccc(NC(=O)COC(=O)C2CC3C=CC2C3)cc1` (stereo not given), greater than 47.2 µg/mL.

For `CCOc1ccc(Br)cc1S(=O)(=O)Nc1cccnc1`, the solubility (kinetic) turned out to be 1.4 µg/mL (≈ 3.92 µM). The result for `Cc1cc(Nc2ccc(Cl)cc2)nc(-c2ccccc2O)n1` reads 0.2 µg/mL (≈ 0.641 µM); that for `Cc1cccc(-n2c(=S)[nH]c3ccccc3c2=O)n1`, greater than 40.4 µg/mL; that for `N#Cc1c(-c2ccc([N+](=O)[O-])cc2)nc2n(c1=O)CCS2`, 14.7 µg/mL (≈ 49 µM).

Compound `O=C(Nc1cc(Cl)cc(Cl)c1)c1cccnc1` gave a solubility (kinetic) of 17.6 µg/mL (≈ 65.9 µM).

In turn, `CC(C)(C)N(Cc1cc2ccccc2[nH]c1=O)C(=O)c1cccc([N+](=O)[O-])c1` had a solubility (kinetic) of 1.4 µg/mL (≈ 3.69 µM).

Compound `Cc1c(Cl)cccc1NC(=O)c1cccnc1` came in with a solubility (kinetic) greater than 37 µg/mL. For `COC(CNC(=O)c1ccc2c(c1)ncn2C1CCCCCC1)OC` the value was greater than 51.8 µg/mL; for `Cl.OC(CN1CCOCC1)Cn1c2c(c3ccccc31)CCCC2` (stereo not given), 51.3 µg/mL. For `COc1ccc(CCNC(=O)CN2C(=O)NC3(CCCCC3)C2=O)cc1` the value was greater than 53.9 µg/mL; for `CC(=O)Nc1ccc2nc(NC(=O)CN3CCOCC3)sc2c1`, greater than 50.2 µg/mL; for `CC1CN(C(=O)CNC(=O)COc2ccccc2)CC(C)O1` (stereo not given), greater than 46 µg/mL.

`CN(CC1COc2ccccc2O1)C(=O)CSc1nncs1` (stereo not given): the kinetic solubility is greater than 50.6 µg/mL. On to `CNC(=O)c1ccccc1Nc1ccc(SC(F)F)cc1`, for which the solubility (kinetic) was 28.6 µg/mL (≈ 92.8 µM). For `CC(CCc1ccccc1)NC(=O)COC(=O)c1ccccc1O` (stereo not given) the value was 1.8 µg/mL (≈ 5.5 µM). For `O=C(/C=C/c1ccc2c(c1)OCO2)N1CCCCC1` the value was greater than 38.9 µg/mL.

Take `O=C(COc1ccccc1Cl)N1CCNC1=O`: the solubility (kinetic) was greater than 38.2 µg/mL. For `Cc1cc(NC(=O)CSc2nc3c(cc2C#N)CCCCC3)no1` the value was less than 0.2 µg/mL; for `CCOC(=O)c1ccc(S(=O)(=O)N2CCN(C(=O)c3ccccn3)CC2)cc1`, greater than 60.5 µg/mL. `CC(=O)Nc1ccc2nc(NC(=O)c3ccco3)sc2c1`: the kinetic solubility was 4.9 µg/mL (≈ 16.3 µM). For `CC(C)[C@H](NC(=O)c1ccc(Cl)cc1)C(=O)OCC(=O)N1CCN(c2ccccc2)CC1` the value was 52.5 µg/mL (≈ 115 µM); for `O=Cc1cccc(Oc2ncccn2)c1`, greater than 30 µg/mL. For `CCOC(=O)C1CCN(c2nc(C)cc(C)c2C#N)CC1` the value was 36.9 µg/mL (≈ 128 µM). The result for `Cc1csc2nc(NC(=O)c3ccccc3)sc(=O)c12` reads 0.9 µg/mL (≈ 2.98 µM); that for `CCC(C)(C)c1ccc(OC(=O)c2cccnc2Cl)cc1`, less than 0.7 µg/mL. The compound `CC(NC(=O)C12CC3CC(CC(O)(C3)C1)C2)c1ccccc1` (stereo not given) had a kinetic solubility greater than 44.9 µg/mL. The result for `CCCOC(=O)c1ccc(NC(=O)Cc2cccs2)cc1` reads 24 µg/mL (≈ 79.1 µM); that for `Cc1cc(C)c(NS(=O)(=O)c2c(C)noc2C)c(C)c1`, 33.3 µg/mL (≈ 113 µM).

On to `O=C(COC(=O)c1ccccc1Br)Nc1cccnc1Cl`, for which the solubility (kinetic) was 18.2 µg/mL (≈ 49.2 µM). The result for `Cc1ccc(NC2=NCCCS2)cc1Cl` reads 28.4 µg/mL (≈ 118 µM); that for `Cc1cccc(NCc2ccc(O)c3ncccc23)c1C`, greater than 41.8 µg/mL; that for `Cn1c(=O)n(C)c2cc(S(=O)(=O)Nc3ccc(F)cc3)ccc21`, 33.5 µg/mL (≈ 99.9 µM). The result for `CCOc1ccc(/C=C2\SC(=S)N(CCC(=O)O)C2=O)cc1` reads 40.9 µg/mL (≈ 121 µM). As to `CCOn1c(=O)c(-c2ccc(F)cc2)[n+]([O-])c2ccccc21`, the kinetic solubility was 9.9 µg/mL (≈ 33 µM). The result for `c1ccc(CN2CCN(Cc3c[nH]c4ccccc34)CC2)cc1` reads greater than 45.8 µg/mL; that for `CCn1c(C(O)c2cc(OC)ccc2OC)nc2ccccc21` (stereo not given), greater than 46.9 µg/mL.

`Cc1ccc(Cl)cc1NS(=O)(=O)N1CCOCC1` displayed a solubility (kinetic) greater than 43.6 µg/mL. For `O=C(Nc1ccccc1C(=O)O)C1=NN=CC1` the value was greater than 34.7 µg/mL; for `O=C(O)c1ccc(NC(=S)NCc2ccccc2)cc1`, greater than 43 µg/mL; for `CCOc1ccccc1OCC(=O)Nc1nc2ccccc2[nH]1`, 4.1 µg/mL (≈ 13.2 µM). On to `CSc1ncc(C(=O)Nc2cccc(Cl)c2)c(C)n1`, for which the solubility (kinetic) was greater than 44.1 µg/mL.
